How the values were obtained:
Assay in all cases: NCI 60 single concentration growth inhibition
Type in all cases: cell-based, human
MDA-MB-468 = conditions: Homo sapiens, MDA-MB-468, Breast cancer, read-out: GI%
Method in brief: (§1)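 Read-out is SRB absorbance at 515 nm after TCA fixation (10% for adherent lines, 16% for suspension lines). Drugs were applied for 48 h following a 24 h plating period. Growth percentages came from time-zero, control and treated absorbances.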

SN12C = conditions: Homo sapiens, Renal cancer, read-out: GI%
Method in brief: as §1

SK-MEL-5 = conditions: Homo sapiens, SK-MEL-5, Melanoma, read-out: GI%
Method in brief: as §1

MDA-MB-231/ATCC = conditions: Homo sapiens, Breast cancer, read-out: GI%
Method in brief: as §1

ACHN = conditions: Homo sapiens, Renal cancer, read-out: GI%
Method in brief: as §1

PC-3 = conditions: Homo sapiens, PC-3, Prostate cancer, read-out: GI%
Method in brief: as §1

OVCAR-8 = conditions: Homo sapiens, OVCAR-8, Ovarian cancer, read-out: GI%
Method in brief: as §1

SK-OV-3 = conditions: Homo sapiens, SK-OV-3, Ovarian cancer, read-out: GI%
Method in brief: as §1

BT-549 = conditions: Homo sapiens, BT-549, Breast cancer, read-out: GI%
Method in brief: as §1

UACC-62 = conditions: Homo sapiens, UACC-62, Melanoma, read-out: GI%
Method in brief: as §1

RXF 393 = conditions: Homo sapiens, RXF 393, Renal cancer, read-out: GI%
Method in brief: as §1

SK-MEL-28 = conditions: Homo sapiens, SK-MEL-28, Melanoma, read-out: GI%
Method in brief: as §1

KM12 = conditions: Homo sapiens, KM12, Colon cancer, read-out: GI%
Method in brief: as §1

MCF7 = conditions: Homo sapiens, MCF7, Breast cancer, read-out: GI%
Method in brief: as §1

SF-539 = conditions: Homo sapiens, SF-539, CNS cancer, read-out: GI%
Method in brief: as §1

T-47D = conditions: Homo sapiens, T47D, Breast cancer, read-out: GI%
Method in brief: as §1

NCI/ADR-RES = conditions: Homo sapiens, Ovarian cancer, read-out: GI%
Procedure: (§2) The synthesized dichlorobenzimidazoles 10a–p were assayed for their influence on divers cancer cell lines according to the method presented in the Additional file A.
(§3) 5. Screening of cytotoxic activity against a panel of sixty human tumor cell lines
(§4) The selected compounds by NCI were evaluated for their anticancer activity in a two-stage process. First, these compounds were screened against the full NCI 60 cell lines panel at a single high dose of 10 µM. Then, the output from the single dose screen is reported as a mean graph. […]
(§5) Assay protocol. The human tumor cell lines of the cancer screening panel are grown in RPMI 1640 medium containing 5% fetal bovine serum and 2 mM L-glutamine. For a typical screening experiment, cells are inoculated into 96 well microtiter plates in 100 µL at plating densities ranging from 5000 to 40,000 cells/well depending on the doubling time of individual cell lines. After cell inoculation, the microtiter plates are incubated at 37 °C, 5% CO 2, 95% air and 100% relative humidity for 24 h prior to addition of the experimental drugs.
(§6) After 24 h, two plates of each cell line are fixed in situ with TCA, to represent a measurement of the cell population for each cell line at the time of drug addition (Tz). The experimental drugs are solubilized in dimethyl sulfoxide at 400-fold the desired final maximum test concentration and stored frozen prior to use. At the time of drug addition, an aliquot of frozen concentrate is thawed and diluted to twice the desired final maximum test concentration with complete medium containing 50 µg/mL gentamicin. Additional four, 10-fold or ½ log serial dilutions are made to provide a total of five drug concentrations plus control.
(§7) Aliquots of […] of these different drug dilutions are added to the appropriate microtiter wells already containing […] of medium, resulting in the required final drug concentrations.
(§8) Following drug addition, the plates are incubated for an additional 48 h at 37 °C, 5% CO 2, 95% air, and 100% relative humidity. For adherent cells, the assay is terminated by the addition of cold TCA.
(§9) Cells are fixed in situ by the gentle addition of 50 µL of cold 50% (w/v) TCA (final concentration, 10% TCA) and incubated for 60 min at 4 °C. The supernatant is discarded, and the plates are washed five times with tap water and air dried. Sulforhodamine B (SRB) solution ([…]) at 0.4% (w/v) in 1% acetic acid is added to each well, and plates are incubated for 10 min at room temperature. After staining, unbound dye is removed by washing five times with 1% acetic acid and the plates are air dried. Bound stain is subsequently solubilized with 10 mM trizma base, and the absorbance is read on an automated plate reader at a wavelength of 515 nm. For suspension cells, the methodology is […]
(§10) the same except that the assay is terminated by fixing settled cells at the bottom of the wells by gently adding 50 µl of 80% TCA (final concentration, 16% TCA). Using the seven absorbance measurements [time zero, (Tz), control growth, (C), and test growth in the presence of drug at the five concentration levels (Ti)], the percentage growth is calculated at each of the drug concentrations […]
(§11) Percentage growth inhibition is calculated as: [(Ti Tz)/(C–Tz)] x 100 for concentrations for which Ti>/=Tz and [(Ti-Tz)/Tz] x 100 for concentrations for which Ti < Tz. […]
(§12) Results for each compound were reported as a mean graph of the percent growth of the treated cells when compared to the untreated control cells. There after obtaining the results for one dose assay, analysis of historical Development Therapeutics Programme (DTP) was performed and compounds which satisfies predetermined threshold inhibition criteria is selected for NCI full panel 5 dose assay.

OVCAR-3 = conditions: Homo sapiens, OVCAR-3, Ovarian cancer, read-out: GI%
Procedure: as §2, §3, §4, §5, §6, §7, §8, §9, §10, §11, §12

HT29 = conditions: Homo sapiens, HT-29, HT29, Colon cancer, read-out: GI%
Procedure: as §2, §3, §4, §5, §6, §7, §8, §9, §10, §11, §12

| Compound | inhibition at 10 µM (MDA-MB-468) [%] | inhibition at 10 µM (SN12C) [%] | inhibition at 10 µM (SK-MEL-5) [%] | inhibition at 10 µM (MDA-MB-231/ATCC) [%] | inhibition at 10 µM (ACHN) [%] | inhibition at 10 µM (PC-3) [%] | inhibition at 10 µM (OVCAR-8) [%] | inhibition at 10 µM (SK-OV-3) [%] | inhibition at 10 µM (BT-549) [%] | inhibition at 10 µM (UACC-62) [%] | inhibition at 10 µM (RXF 393) [%] | inhibition at 10 µM (SK-MEL-28) [%] | inhibition at 10 µM (KM12) [%] | inhibition at 10 µM (MCF7) [%] | inhibition at 10 µM (SF-539) [%] | inhibition at 10 µM (T-47D) [%] | inhibition at 10 µM (NCI/ADR-RES) [%] | inhibition at 10 µM (OVCAR-3) [%] | inhibition at 10 µM (HT29) [%] |
| --- | --- | --- | --- | --- | --- | --- | --- | --- | --- | --- | --- | --- | --- | --- | --- | --- | --- | --- | --- |
| COc1ccc(C=NNC(=O)Cn2c(-c3ccc(OC)cc3)nc3cc(Cl)c(Cl)cc32)cc1 [Compound 10d, 2-(5,6-Dichloro-2-(4-methoxyphenyl)-1H-benzo[d]imidazol-1-yl)-N'-(4-methoxybenzylidene)acetohydrazide] | 81.8 | 27.8 | 78.9 | 27.4 | 40.2 | 68.5 | 22.4 | 30.4 | 50.3 | 34.1 | 38.7 | 33.5 | 40.8 | 81.5 | 34.2 | 67.2 | 36 | 22.7 | 37.5 |
| COc1ccc(-c2nc3cc(Cl)c(Cl)cc3n2CC(=O)NN=Cc2cccc(OCC(=O)O)c2)cc1 [Compound 10e, 2-(3-((2-(2-(5,6-Dichloro-2-(4-methoxyphenyl)-1H-benzo[d]imidazol-1-yl)acetyl)hydrazono)methyl)phenoxy)acetic acid] | < 5 | < 5 | < 5 | < 5 | < 5 | < 5 | < 5 | < 5 | < 5 | < 5 | < 5 | < 5 | < 5 | 13.6 | < 5 | < 5 | < 5 | < 5 | < 5 |
| COc1ccc(-c2nc3cc(Cl)c(Cl)cc3n2CC(=O)NN=Cc2ccc(OCC(=O)O)cc2)cc1 [Compound 10f, 2-(4-((2-(2-(5,6-Dichloro-2-(4-methoxyphenyl)-1H-benzo[d]imidazol-1-yl)acetyl)hydrazono)methyl)phenoxy)acetic acid] | 6.38 | < 5 | < 5 | < 5 | < 5 | 8.65 | < 5 | < 5 | < 5 | < 5 | < 5 | < 5 | < 5 | 18.9 | 10.8 | < 5 | < 5 | < 5 | < 5 |
| COC(=O)COc1cccc(C=NNC(=O)Cn2c(-c3ccc(OC)cc3)nc3cc(Cl)c(Cl)cc32)c1 [Compound 10g, Methyl-2-(3-((2-(2-(5,6-dichloro-2-(4-methoxyphenyl)-1H-benzo[d]imidazol-1-yl)acetyl)hydrazono)methyl)phenoxy)acetate] | 112 | 40.7 | 8.95 | 21.6 | < 5 | 36.9 | 84.2 | < 5 | < 5 | < 5 | 32.9 | < 5 | < 5 | 31.9 | 26.5 | 55.9 | < 5 | < 5 | 51.7 |
| COC(=O)COc1ccc(C=NNC(=O)Cn2c(-c3ccc(OC)cc3)nc3cc(Cl)c(Cl)cc32)cc1 [Compound 10h, Methyl-2-(4-((2-(2-(5,6-dichloro-2-(4-methoxyphenyl)-1H-benzo[d]imidazol-1-yl)acetyl)hydrazono)methyl)phenoxy)acetate] | 177 | 66.4 | < 5 | 94.5 | 106 | 74.4 | 148 | < 5 | 6.87 | < 5 | 85.7 | 31.7 | < 5 | 67.5 | 39.2 | 107 | < 5 | 93 | 93.4 |
| CCOC(=O)C(C)Oc1ccc(C=NNC(=O)Cn2c(-c3ccc(OC)cc3)nc3cc(Cl)c(Cl)cc32)cc1 (stereo not drawn) [Compound 10j, Ethyl-2-(4-((2-(2-(5,6-dichloro-2-(4-methoxyphenyl)-1H-benzo[d]imidazol-1-yl)acetyl) hydrazono)methyl)phenoxy)propanoate] | 43.9 | 51.9 | 25.2 | 17.2 | 18 | 38.5 | 20.7 | 5.5 | 11.8 | 20.1 | 43.7 | < 5 | < 5 | 39 | < 5 | 72.8 | < 5 | < 5 | 39.2 |
